For one data set, the target named is Protein Wnt-3a (Mus musculus, UniProt P27467). Description: antagonism of Wnt3a pathway luciferase reporter – Wnt-LIGHT cells, luminescence, selectivity assay for Gli-SUFU antagonist project, dose response (AID 651570).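 Note: Wnt-LIGHT reporter cells stimulated with conditioned medium from Wnt3a-producing cells.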 The data set is classed as functional. Particulars: read-out: IC50_Mean.
For data set [1], the target named is T1, High affinity choline transporter 1 (Homo sapiens, UniProt Q9GZV3).
T1 sequence (Q9GZV3 whole entry): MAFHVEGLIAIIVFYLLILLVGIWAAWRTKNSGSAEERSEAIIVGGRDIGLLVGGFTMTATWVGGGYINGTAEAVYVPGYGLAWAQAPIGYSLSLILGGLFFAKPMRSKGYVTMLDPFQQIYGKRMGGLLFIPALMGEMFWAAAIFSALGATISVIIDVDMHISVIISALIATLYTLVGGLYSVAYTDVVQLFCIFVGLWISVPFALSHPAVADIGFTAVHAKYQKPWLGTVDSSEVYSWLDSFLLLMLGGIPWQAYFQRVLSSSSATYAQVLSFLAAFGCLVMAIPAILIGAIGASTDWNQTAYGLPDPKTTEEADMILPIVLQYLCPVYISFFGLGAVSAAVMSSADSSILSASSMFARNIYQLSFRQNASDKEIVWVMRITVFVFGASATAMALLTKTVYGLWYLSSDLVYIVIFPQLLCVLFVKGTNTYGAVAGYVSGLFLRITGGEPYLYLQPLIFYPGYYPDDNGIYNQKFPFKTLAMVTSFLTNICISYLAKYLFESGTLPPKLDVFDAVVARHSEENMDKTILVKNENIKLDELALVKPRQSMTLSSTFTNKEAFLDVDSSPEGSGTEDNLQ
The experiment in a line: human choline transporter blockers, potency – cell-based, 5-point CRC, membrane potential dye, dose response (AID 504840). The data set is classed as functional.

Another data set relates to INS1. The experiment in a line: INS-1E survival protection against cytokine death – cell-based, luminescence, retest, dose response (AID 449756).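 Note: cell death triggered by IL-1 beta plus TNF-alpha plus IFN-gamma mixture; protective hits raise ATP signal compared with cytokine alone wells.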 The data set is classed as functional. Particulars: Rattus norvegicus.
The target in data set [2] is ATP-dependent molecular chaperone HSP82 (Candida albicans (strain WO-1) (Yeast), UniProt C4YTQ8). Description: steroid-induced GRE reporter decrease in yeast – S. cerevisiae, luminescence, Hsp90 inhibitor project, dose response (AID 2400).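 Note: beta-galactosidase luminescence from glucocorticoid response element reporter as proxy for Hsp90 function; inhibitor potency where signal loss means Hsp90 inhibition.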 The data set is classed as functional, cell-based.
ATP-dependent molecular chaperone HSP82, sequence (C4YTQ8 whole entry): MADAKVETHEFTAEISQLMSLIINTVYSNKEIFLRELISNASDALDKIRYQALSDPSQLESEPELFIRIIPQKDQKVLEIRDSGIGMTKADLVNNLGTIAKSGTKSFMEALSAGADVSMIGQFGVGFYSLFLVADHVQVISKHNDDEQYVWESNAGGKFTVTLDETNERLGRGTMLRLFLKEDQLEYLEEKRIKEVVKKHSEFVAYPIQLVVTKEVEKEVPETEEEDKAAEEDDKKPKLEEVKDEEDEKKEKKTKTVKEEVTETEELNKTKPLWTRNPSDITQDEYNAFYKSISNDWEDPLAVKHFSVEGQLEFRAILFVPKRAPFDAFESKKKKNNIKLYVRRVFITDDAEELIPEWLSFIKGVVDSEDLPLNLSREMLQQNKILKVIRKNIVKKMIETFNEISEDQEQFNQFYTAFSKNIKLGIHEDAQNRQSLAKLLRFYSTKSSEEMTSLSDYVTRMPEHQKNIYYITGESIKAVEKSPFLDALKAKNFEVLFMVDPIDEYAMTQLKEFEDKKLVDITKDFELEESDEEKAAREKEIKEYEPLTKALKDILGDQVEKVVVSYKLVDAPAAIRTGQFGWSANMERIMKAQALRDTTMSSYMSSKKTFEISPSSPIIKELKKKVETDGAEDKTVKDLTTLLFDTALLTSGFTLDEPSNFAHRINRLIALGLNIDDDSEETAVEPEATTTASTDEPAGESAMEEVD
Data set [3] is described as follows: fluconazole-exposed Candida albicans growth modulators – fluorescence, retest, confirmation (AID 2467). The data set is classed as functional, cell-based.
A short description of data set [4]: NIH-3T3 fibroblast cytotoxicity, dose response, cytotoxicity control, cell-based, fluorescence, Alamar Blue, secondary assay (AID 2327).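 Note: NIH-3T3 mouse fibroblasts cultured with fluconazole at 8 µg/mL.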 The data set is classed as functional.
The target of data set [5] is T2, Serine/threonine-protein phosphatase (Candida dubliniensis (strain CD36 / CBS 7987 / NCPF 3949 / NRRLY-17841) (Yeast), UniProt B9W6M3).
T2 sequence (B9W6M3 whole entry): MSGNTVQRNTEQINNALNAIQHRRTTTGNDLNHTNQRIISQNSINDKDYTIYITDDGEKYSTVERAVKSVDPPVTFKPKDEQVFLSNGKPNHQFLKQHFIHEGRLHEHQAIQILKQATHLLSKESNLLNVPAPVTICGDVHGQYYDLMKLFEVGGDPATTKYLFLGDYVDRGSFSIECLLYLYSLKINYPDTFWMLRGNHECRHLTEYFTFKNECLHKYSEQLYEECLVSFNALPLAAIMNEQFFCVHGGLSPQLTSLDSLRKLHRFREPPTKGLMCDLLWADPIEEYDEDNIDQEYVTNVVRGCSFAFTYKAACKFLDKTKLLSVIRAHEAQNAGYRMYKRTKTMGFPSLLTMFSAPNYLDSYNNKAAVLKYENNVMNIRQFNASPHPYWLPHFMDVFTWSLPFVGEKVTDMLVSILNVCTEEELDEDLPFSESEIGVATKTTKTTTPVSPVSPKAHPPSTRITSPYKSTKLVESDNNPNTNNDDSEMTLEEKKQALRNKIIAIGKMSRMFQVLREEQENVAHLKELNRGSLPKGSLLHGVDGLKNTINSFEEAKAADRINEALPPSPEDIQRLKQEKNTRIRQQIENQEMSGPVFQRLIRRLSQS
Description: blockers of CaCl2-induced CDRE-lacZ signaling – S. cerevisiae, luminescence, secondary, dose response (AID 2388).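 Note: yeast reporter cells carrying a calcineurin-responsive lacZ construct stimulated with calcium chloride; luminescent beta-galactosidase reporter signal in whole cells rather than isolated phosphatase activity; potency for inhibition where a drop in reporter signal means calcineurin blockade.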 The data set is classed as functional, cell-based.

A further data set has as its target Cytochrome P450 3A4 (Homo sapiens, UniProt P08684).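 Note: CYP3A4 tested as one member of a cytochrome P450 panel screen.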
In data set [6] the target is T3, Cytochrome P450 2C9 (Homo sapiens, UniProt P11712).
T3 sequence (P11712 whole entry): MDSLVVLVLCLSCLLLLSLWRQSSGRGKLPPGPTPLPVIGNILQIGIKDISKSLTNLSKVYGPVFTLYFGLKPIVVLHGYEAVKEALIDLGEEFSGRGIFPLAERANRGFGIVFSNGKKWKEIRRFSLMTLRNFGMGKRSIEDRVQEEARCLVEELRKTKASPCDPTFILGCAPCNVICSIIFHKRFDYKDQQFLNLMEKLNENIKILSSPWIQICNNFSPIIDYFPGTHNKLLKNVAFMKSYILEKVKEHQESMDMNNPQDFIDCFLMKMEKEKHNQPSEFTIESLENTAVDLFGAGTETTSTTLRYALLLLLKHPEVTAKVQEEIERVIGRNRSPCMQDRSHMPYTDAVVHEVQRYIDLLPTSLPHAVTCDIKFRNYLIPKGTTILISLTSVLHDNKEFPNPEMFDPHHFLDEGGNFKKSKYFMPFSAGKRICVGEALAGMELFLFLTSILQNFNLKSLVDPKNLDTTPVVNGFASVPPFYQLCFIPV
Data set [7] addresses FAD-linked sulfhydryl oxidase ALR (Homo sapiens, UniProt P55789). Description: ALR-catalysed DTT oxidation blockers – biochemical, H2O2 detection, luminescence, cherry-pick, dose response (AID 493248).
For data set [8], the target named is T4, Lysine-specific demethylase 4C (Homo sapiens, UniProt Q9H3R0).
T4 sequence (Q9H3R0 whole entry): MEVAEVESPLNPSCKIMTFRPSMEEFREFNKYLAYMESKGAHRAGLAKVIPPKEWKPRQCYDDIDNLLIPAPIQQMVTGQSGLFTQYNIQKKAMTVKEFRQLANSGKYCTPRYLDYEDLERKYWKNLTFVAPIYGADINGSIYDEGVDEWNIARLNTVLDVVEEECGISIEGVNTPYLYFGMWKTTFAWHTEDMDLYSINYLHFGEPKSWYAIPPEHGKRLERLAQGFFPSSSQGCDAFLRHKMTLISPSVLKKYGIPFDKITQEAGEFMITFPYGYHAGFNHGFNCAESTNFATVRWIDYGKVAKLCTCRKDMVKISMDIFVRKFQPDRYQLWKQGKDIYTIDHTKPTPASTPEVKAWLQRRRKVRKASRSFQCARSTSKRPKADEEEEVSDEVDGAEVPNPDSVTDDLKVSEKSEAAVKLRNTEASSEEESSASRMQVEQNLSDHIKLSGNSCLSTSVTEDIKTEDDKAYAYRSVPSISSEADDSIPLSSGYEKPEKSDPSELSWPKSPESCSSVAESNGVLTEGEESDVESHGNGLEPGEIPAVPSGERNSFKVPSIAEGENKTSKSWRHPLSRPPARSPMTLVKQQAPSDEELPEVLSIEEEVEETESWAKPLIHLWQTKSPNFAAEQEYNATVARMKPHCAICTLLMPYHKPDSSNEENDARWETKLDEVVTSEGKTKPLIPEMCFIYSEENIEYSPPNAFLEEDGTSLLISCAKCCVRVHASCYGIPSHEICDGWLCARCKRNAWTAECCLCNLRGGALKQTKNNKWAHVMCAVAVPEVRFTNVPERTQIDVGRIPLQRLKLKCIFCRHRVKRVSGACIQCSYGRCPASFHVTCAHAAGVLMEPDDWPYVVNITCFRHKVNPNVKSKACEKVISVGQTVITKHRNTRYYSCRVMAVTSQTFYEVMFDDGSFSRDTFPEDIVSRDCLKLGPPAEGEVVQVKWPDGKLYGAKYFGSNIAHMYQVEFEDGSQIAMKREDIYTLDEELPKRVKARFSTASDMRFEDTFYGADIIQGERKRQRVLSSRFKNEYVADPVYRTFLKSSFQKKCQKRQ
Description: inhibition of JMJD2C H3K9me3 demethylation – biochemical, DELFIA europium, cherry-picked samples, dose response (AID 488835). The data set is classed as functional.

Data set [9] concerns the target T5, Polyadenylate-binding protein 1 (Homo sapiens, UniProt P11940). Description: MLLE domain peptide-binding blockers, IC50 – biochemical, fluorescence polarization, FITC-PAM2 peptide, dose response (AID 602259). The data set is classed as functional. As to conditions: read-out: IC50_Mean.
Data set [10] addresses T5, Polyadenylate-binding protein 1. Description: MLLE binding blockers, Cy5 peptide tracer – biochemical, fluorescence polarization, Cy5-PAM2 peptide, secondary, miRNA deadenylation inhibitor project, dose response (AID 602260). The data set is classed as functional. As to conditions: read-out: IC50_Mean. For orientation: Fluorescence polarisation rises when a labelled molecule tumbles more slowly, as on binding a larger partner.

Data set [11] deals with Ras and Rab interactor 1/Tyrosine-protein kinase ABL1 (Homo sapiens, UniProt P00519+Q13671). The data set is classed as functional.
Ras and Rab interactor 1/Tyrosine-protein kinase ABL1, sequence (P00519 whole entry): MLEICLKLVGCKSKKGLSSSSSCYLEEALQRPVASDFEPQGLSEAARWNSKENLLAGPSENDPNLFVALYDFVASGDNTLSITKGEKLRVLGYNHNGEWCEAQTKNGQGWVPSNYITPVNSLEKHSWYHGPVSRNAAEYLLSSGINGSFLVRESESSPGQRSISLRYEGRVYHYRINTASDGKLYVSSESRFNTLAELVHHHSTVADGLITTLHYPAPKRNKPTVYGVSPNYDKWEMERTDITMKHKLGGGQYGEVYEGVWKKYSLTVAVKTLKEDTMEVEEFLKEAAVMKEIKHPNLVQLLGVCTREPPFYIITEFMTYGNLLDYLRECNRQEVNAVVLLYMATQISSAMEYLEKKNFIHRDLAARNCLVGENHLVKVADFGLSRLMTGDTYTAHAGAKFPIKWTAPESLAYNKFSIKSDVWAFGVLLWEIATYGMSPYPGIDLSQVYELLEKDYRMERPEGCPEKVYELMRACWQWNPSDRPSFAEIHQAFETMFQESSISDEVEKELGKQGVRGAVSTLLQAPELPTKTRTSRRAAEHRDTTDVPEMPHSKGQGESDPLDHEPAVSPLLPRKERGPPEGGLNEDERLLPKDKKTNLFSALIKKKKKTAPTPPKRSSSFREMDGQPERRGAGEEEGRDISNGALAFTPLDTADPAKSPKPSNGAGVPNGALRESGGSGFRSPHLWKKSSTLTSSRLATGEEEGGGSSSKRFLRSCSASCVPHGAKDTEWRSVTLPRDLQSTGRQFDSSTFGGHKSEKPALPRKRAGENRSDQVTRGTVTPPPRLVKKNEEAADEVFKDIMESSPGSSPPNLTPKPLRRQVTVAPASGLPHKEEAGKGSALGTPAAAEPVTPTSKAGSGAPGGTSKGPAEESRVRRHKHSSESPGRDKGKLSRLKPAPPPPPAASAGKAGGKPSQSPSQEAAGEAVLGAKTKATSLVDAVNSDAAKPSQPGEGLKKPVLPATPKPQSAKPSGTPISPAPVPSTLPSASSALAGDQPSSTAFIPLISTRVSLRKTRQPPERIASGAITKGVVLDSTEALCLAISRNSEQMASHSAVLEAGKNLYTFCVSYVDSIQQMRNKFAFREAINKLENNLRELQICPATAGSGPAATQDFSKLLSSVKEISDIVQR
Ras and Rab interactor 1/Tyrosine-protein kinase ABL1, sequence (Q13671 whole entry): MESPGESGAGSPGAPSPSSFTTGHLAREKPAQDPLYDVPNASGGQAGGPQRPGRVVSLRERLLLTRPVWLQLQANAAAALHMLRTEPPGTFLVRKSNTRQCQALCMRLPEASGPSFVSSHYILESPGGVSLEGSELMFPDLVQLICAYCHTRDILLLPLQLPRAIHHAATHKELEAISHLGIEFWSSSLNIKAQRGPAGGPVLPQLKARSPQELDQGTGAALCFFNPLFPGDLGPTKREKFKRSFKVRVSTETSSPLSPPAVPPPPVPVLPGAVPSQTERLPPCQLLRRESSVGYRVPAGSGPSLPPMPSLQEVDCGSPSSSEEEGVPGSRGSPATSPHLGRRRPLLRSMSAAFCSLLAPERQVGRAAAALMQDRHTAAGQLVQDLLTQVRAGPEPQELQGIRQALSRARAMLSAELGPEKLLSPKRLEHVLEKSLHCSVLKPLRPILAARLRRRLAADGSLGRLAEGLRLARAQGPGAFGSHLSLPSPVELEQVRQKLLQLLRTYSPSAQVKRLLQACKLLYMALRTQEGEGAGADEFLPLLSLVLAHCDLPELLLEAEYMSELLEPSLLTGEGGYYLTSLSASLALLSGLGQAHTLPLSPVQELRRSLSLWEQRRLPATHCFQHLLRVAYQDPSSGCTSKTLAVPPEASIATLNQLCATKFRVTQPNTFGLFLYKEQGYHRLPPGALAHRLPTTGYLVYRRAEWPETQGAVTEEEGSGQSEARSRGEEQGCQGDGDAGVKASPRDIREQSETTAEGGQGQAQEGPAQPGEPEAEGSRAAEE
The target of data set [12] is T3, Cytochrome P450 2C9. This is another data set of the same source.
Data set [13] in a line: DRD fibroblast viability loss – cell-based, non-viral oncogenic, luminescence, dose response (AID 1934). Particulars: Homo sapiens. The data set is classed as functional.
For data set [14], the system named is BJ. The experiment in a line: BJ-TERT-LT-ST fibroblast viability loss – cell-based, RAS-independent, luminescence, dose response (AID 1935).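 Note: BJ fibroblasts immortalized with TERT plus LT and ST oncogenes.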 The data set is classed as functional. As to conditions: Homo sapiens.
The subject of data set [15] is BJ. The experiment in a line: BJ-TERT fibroblast viability loss – cell-based, RAS-independent, luminescence, dose response (AID 1933). The data set is classed as functional. Particulars: Homo sapiens.
Data set [16] can be described thus: general cell-killing toxicity readout – plate reader, dry powder samples, cytotoxicity control for PAX8 inhibitor project, dose response (AID 743021). The data set is classed as functional, cell-based.
A further data set has as its target Paired box protein Pax-8 (Homo sapiens, UniProt Q06710). Description: PAX8 transcriptional activity inhibition in RMG-I – RMG-I cells, luciferase, cherry-pick, dose response (AID 687027).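 Note: luciferase reporter driven by Pax8 target thyroperoxidase promoter measured by SteadyGlo luminescence.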 The data set is classed as functional, cell-based.
Data set [17] concerns BJ. The experiment in a line: growth inhibition of engineered Ras-driven BJ cells – cell-based, alamar blue fluorescence, cherrypicked samples, dose response (AID 2631).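 Note: confirmatory dose-response assay in RAS-dependent BJ fibroblasts engineered with TERT, LT and ST, with cytotoxicity read by fluorescence.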 Particulars: Homo sapiens. The data set is classed as functional. A general note: Resazurin is reduced to fluorescent resorufin, in cell work by metabolically active cells.
Data set [18] deals with BJ. The experiment in a line: cells. Particulars: Homo sapiens. The data set is classed as functional, cell-based.
The target of data set [19] is T6, Low molecular weight phosphotyrosine protein phosphatase (Homo sapiens, UniProt P24666).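 Note: Dose-response confirmation assay measuring inhibition of LMPTP enzyme activity by fluorescence intensity read-out.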
T6 sequence (P24666 whole entry): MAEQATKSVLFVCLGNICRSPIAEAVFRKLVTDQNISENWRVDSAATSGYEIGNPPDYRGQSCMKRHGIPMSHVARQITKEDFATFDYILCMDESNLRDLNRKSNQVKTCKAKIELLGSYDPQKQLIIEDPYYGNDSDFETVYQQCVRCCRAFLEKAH
The data set is classed as functional. As to conditions: read-out: IC50_Mean.

For a further data set, the target named is Cytochrome P450 2C19 (Homo sapiens, UniProt P33261). Description: Cytochrome panel assay with activity outcomes. Panel member name: p450-cyp2c19 Compounds with AC50 equal or less than 10 uM are considered active. The data set is classed as functional. As to conditions: read-out: AC50.

Activity calls are given as the source filed them.

Consider 15 compounds from ChEMBL document CHEMBL1201862, “PubChem BioAssay data set” (2004).

Cytochrome P450 3A4, sequence (P08684 whole entry): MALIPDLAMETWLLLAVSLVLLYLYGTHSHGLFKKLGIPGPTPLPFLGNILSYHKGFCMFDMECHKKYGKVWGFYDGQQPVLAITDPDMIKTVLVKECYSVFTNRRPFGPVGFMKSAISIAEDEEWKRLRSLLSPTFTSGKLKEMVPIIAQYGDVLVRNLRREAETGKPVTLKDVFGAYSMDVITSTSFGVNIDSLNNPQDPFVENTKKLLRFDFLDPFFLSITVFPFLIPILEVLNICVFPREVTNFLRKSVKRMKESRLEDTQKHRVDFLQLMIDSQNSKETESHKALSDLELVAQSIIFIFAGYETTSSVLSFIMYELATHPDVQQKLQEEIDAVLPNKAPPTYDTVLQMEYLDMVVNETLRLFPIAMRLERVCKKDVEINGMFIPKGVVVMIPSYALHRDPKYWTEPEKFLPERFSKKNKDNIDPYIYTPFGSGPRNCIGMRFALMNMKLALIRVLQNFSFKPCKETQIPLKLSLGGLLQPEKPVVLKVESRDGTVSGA
Protein Wnt-3a, sequence (P27467 whole entry): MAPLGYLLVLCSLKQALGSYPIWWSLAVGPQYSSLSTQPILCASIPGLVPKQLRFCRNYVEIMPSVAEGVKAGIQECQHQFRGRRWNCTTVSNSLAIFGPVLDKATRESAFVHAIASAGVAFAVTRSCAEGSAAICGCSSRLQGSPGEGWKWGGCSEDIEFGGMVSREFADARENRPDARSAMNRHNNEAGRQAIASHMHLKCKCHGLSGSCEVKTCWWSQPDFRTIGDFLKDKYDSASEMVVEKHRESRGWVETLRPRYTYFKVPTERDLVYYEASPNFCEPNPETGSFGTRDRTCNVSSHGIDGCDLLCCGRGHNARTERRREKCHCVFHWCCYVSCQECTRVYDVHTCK
T5 sequence (P11940 whole entry, the tested form may be a part): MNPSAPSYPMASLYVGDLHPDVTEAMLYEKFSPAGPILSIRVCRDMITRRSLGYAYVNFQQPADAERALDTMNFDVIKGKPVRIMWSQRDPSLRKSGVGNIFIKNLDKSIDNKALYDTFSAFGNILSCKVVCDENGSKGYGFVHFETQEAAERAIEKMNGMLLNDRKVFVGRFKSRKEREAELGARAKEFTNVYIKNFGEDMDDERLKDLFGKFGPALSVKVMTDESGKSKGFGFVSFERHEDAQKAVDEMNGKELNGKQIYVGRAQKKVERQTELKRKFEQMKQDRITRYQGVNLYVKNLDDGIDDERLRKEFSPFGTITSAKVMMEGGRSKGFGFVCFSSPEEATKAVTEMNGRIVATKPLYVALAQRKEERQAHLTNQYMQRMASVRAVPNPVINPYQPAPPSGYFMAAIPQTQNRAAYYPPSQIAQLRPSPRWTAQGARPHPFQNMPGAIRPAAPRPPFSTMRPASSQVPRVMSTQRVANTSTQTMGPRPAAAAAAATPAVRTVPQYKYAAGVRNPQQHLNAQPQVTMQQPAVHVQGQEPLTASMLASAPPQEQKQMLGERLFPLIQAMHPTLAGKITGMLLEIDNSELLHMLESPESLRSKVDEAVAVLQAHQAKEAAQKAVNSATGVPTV
FAD-linked sulfhydryl oxidase ALR, sequence (P55789 whole entry): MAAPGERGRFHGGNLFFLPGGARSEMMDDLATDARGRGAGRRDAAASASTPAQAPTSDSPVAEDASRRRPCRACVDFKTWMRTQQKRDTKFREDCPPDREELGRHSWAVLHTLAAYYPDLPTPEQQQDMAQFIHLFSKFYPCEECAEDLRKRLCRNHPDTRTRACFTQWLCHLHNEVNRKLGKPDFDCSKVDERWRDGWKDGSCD

Turning to `CCCOc1ccc(Br)cc1CSC(=N)N`, the figures for the IC50 (at Protein Wnt-3a; in data set [1]) were 9.88 µM (active) and 15.9 µM (active), respectively. In addition, in the data set on INS1, the AC50 (commonly the concentration at which the activity in the assay is half-maximal) was 6.45 µM (active).

`CCc1nnc(NC(=O)CSc2ncc(-c3ccccc3)n2C)s1`: the EC50 (in general, the concentration needed to bring the measured effect to its halfway point) is 23.1 µM (active) in data set [2], 1.3 µM (active) in data set [3], > 150 µM (inactive) in data set [4] and > 180 µM (inactive) in data set [5].

For `Cc1ccc(S(=O)(=O)NCCC2=CCCCC2)cc1C(N)=O`, on Protein Wnt-3a, the IC50 was 10.8 µM (active).

`C/C(Nc1c(C)n(C)n(-c2ccccc2)c1=O)=C1/C(=O)NC(=O)N(Cc2ccccc2)C1=O`: the AC50 entry on Cytochrome P450 3A4 and on Cytochrome P450 2C9 [6] was “inconclusive” throughout.

With `c1ccc(-c2nc(-c3ccco3)cs2)nc1`, the AC50 was 0.593 µM (active) in data set [7] and 20 µM (active) in data set [8].

For the compound `Cc1ccc(C)c(NC(S)=NNC(=O)c2csc(C(C)C)c2)c1`, the EC50 in [2] was > 160 µM (inactive); in data set [3], 0.907 µM (active); in [4], > 150 µM (inactive); in data set [5] it was > 180 µM (inactive). Moreover, the IC50 in data set [9] and in [10] was > 66 µM (inactive) throughout.

Take `CCOC(=O)CCCCC(=O)c1[nH]c(=O)[nH]c1CSCCO`: in [11], the IC50 is 0.695 µM (active).

As to `CN1CCN(c2ncc3nc(CCc4ccccc4)c(=O)n(C)c3n2)CC1`, the results for the AC50 entry at Cytochrome P450 3A4 and at Cytochrome P450 2C9 [12] were “inconclusive” and 39.8 µM (inconclusive), respectively.

Consider `CCCCCCCN(C(=O)CCl)c1cccc(C)c1`, for which the EC50 was 2.48 µM (inconclusive) in data set [13]; > 75 µM (inconclusive) in the data set on BJ [14]; 0.36 µM (inconclusive) in the data set with BJ [15]; 3.17 µM (active) in the data set on BJ [17]; 3.93 µM (inconclusive) in the data set with BJ [18]. Besides, the AC50 in [16] was 9.19 µM (active); on Paired box protein Pax-8 it was 5.91 µM (active).

For `N=c1c2c(-c3ccccc3)c(-c3ccccc3)n(Cc3ccco3)c2ncn1CCCn1ccnc1`, the EC50 in [13] was 9.54 µM (active); in the data set with BJ [14], > 75 µM (not active); in the data set on BJ [15] it was 9.46 µM (active); in the data set on BJ [17], 1.81 µM (active); in the data set with BJ [18] it was 22.5 µM (active).

For the compound `CN(Cc1c(F)cccc1Cl)C(=O)CNC(=O)c1ccc2c(c1)OCO2`, the IC50 in [11] was 6.04 µM (active).

Take `CCCCn1nnnc1C(c1cc2ccccc2o1)N1CCN(c2cc(C)nc3ccccc23)CC1` (centres undefined): the IC50 in [19] was 9.12 µM (active).

In the case of `C=CCN1CCc2c(cc(O)c(O)c2Br)[C@H](c2ccccc2)C1`, the figures for the AC50 result on Cytochrome P450 3A4 and on Cytochrome P450 2C9 [12] were “inconclusive” and 31.6 µM (inconclusive), respectively.

With `Cc1ccccc1/C=C1\SC(=S)N(/N=C/c2cc([N+](=O)[O-])ccc2O)C1=O`, the EC50 in data set [2] is 20.7 µM (active); in [3], 2.01 µM (active); in data set [4], > 160 µM (inactive); in [5], > 180 µM (inactive).

Regarding `CCC(=O)O[C@H]1CC[C@H]2[C@@H]3CCC4=CC(=O)CC[C@]4(C)[C@H]3CC[C@]12C` [TESTOSTERONE PROPIONATE], the AC50 result on Cytochrome P450 3A4 is “inconclusive”; at Cytochrome P450 2C9 [12], 12.6 µM (inconclusive); at Cytochrome P450 2C19, 10 µM (inconclusive).
